Experimental data as given in BindingDB's records for doi:10.3109/14756360903179385 (University of Peshawar, 2010).

Biological target: Urease (Canavalia ensiformis, UniProt P07374)
Test: Urease Inhibition Assay
Conditions: pH 6.8; 30 °C
Procedure: Reaction mixtures comprising 25 μL of enzyme (jack bean urease) solution and 55 μL of buffer containing 100 mM urea were incubated with 5 μL of test compound (0.5 mM) at 30°C for 15 min in 96-well plates. Urease activity was determined by measuring the ammonia production using the indophenol method, as described by Weatherburn11. Briefly, 45 μL of each phenol reagent (1% (w/v) phenol and 0.005% (w/v) sodium nitroprussside) and 70 μL of alkali reagent (0.5% (w/v) NaOH and 0.1% active chloride, NaOCl) were added to each well. The increasing absorbanceat 630 nm was measured after 50 min, using a microplate reader (Molecular Devices, Sunnyvale, CA, USA). All reactions were performed in triplicate in a final volume of 200 μL. The results (change in absorbance per min) were processed using SoftMax Pro software (Molecular Devices). The entire assay was performed at pH 6.8.

Chain of Urease (P07374 whole entry): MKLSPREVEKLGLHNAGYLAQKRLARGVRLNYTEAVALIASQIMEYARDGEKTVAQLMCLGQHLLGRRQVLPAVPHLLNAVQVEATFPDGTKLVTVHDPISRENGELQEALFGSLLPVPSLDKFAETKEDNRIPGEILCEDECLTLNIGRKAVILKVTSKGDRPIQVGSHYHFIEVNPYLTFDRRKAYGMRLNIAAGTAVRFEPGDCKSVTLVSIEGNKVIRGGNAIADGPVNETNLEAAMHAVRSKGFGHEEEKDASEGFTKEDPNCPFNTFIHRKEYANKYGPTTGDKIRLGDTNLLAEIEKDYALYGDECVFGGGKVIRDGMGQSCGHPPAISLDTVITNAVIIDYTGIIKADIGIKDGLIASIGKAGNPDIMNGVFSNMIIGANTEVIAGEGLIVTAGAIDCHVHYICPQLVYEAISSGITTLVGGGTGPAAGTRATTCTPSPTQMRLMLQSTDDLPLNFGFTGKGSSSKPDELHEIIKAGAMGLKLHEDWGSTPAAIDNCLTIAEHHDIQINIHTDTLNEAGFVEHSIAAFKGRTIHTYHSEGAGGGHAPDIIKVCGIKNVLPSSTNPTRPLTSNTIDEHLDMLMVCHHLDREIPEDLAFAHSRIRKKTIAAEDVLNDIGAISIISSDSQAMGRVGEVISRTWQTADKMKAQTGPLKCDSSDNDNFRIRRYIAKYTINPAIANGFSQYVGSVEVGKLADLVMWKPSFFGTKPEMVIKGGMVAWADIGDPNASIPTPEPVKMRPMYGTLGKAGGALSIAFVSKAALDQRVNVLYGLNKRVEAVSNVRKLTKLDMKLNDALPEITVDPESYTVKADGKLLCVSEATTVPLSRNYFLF

Row | SMILES | IC50 [µM]
1 | O=c1c2cc(O)ccc2oc2cc(O)cc(O)c12 [1,3,7-trihydroxy-9H-xanthen-9-one] | 138
2 | CCCCCCCCCCCCCCCCCCCCCCCCOC(=O)C=Cc1ccc(O)c(O)c1 [Tetracosyl 3-(3,4-dihydroxyphenyl) acrylate (2)] | 21
3 | O=c1c2cccc(O)c2oc2c(O)c(O)ccc12 [US9114126, MB5] | 37.9
